Structures are written as SMILES. The source made the active and inactive calls.

Test [1] deals with Induced myeloid leukemia cell differentiation protein Mcl-1 (Homo sapiens, UniProt Q07820). Put plainly: blockers of MCL1 binding to BIM peptide – biochemical, fluorescence polarization, BIM-BH3 peptide, 1536-well, dose response (AID 2217).
A short description of test [2]: NIH3T3 cell viability loss – ATP luminescence, mouse fibroblasts, counter-screen, dose response (AID 2010).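 Also: cells exposed to compound for about 90 hours before reading.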 In kind it is functional, cell-based.
The test system of another test is HEK293. Put plainly: EBV LMP1 TES2 canonical NF-kB signalling blockers – cell-based, HEK293, luciferase, cherry-pick, dose response (AID 588343). Type of test: functional. The following applies: Homo sapiens.
The nature of test [3]: Trypanosoma cruzi growth suppression in host cells – NIH3T3 host cells, beta-gal luminescence, confirmation (AID 2044).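 Also: intracellular parasites grown in NIH/3T3 mouse fibroblasts as host cells; luminescent beta-galactosidase reporter signal from transgenic T. cruzi replicating inside host cells; inhibitors lower the luminescence signal.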 In kind it is functional, cell-based.
For another test, the target named is Bcl-2-like protein 1 (Homo sapiens, UniProt Q07817). Put plainly: blockers of BCLXL peptide binding – biochemical, fluorescence polarization, 1536-well, selectivity assay for MCL1 inhibitor project, dose response (AID 2218).
Bcl-2-like protein 1, sequence (Q07817 whole entry): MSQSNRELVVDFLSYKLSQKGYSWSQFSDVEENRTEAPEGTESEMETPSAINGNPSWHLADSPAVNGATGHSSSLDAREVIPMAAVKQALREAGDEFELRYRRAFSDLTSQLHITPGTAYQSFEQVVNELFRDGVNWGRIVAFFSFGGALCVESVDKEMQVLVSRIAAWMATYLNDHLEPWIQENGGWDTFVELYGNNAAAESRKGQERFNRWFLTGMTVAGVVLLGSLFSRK
Test [4] is described as follows: cells. In kind it is functional, cell-based.
Test [5] in a line: cells. In kind it is functional, cell-based. The source holds these as a separate data set.
The target in test [6] is Latent membrane protein 1 (Human herpesvirus 4 (strain B95-8), UniProt P03230). Put plainly: LMP1 TES1 pathway selectivity over dsRED control – imaging, HEK293T, dual-color eGFP/dsRED, cherry-picks, selectivity assay for LMP1 NF-kB inhibitor project, dose response (AID 588398). Type of test: functional, cell-based.
Latent membrane protein 1, sequence (P03230 whole entry): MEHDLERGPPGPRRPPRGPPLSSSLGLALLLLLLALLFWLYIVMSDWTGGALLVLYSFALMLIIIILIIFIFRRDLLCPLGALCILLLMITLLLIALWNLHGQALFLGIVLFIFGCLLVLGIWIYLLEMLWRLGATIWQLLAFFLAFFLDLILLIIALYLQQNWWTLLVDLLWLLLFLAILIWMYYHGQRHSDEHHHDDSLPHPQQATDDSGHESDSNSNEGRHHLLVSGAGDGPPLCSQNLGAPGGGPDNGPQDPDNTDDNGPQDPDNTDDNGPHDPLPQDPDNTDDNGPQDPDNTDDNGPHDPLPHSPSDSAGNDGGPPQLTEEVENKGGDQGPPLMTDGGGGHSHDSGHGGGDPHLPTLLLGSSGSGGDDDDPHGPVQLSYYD
Another test concerns the target Bcl-2-like protein 10 (Homo sapiens, UniProt Q9HD36). Put plainly: Concentration-response of Bcl-B inhibitors by biochemical FP with TR3 (AID 1243). Type of test: functional.
For a further test, the target named is Paired box protein Pax-8 (Homo sapiens, UniProt Q06710). Put plainly: PAX8 transcriptional activity inhibition in RMG-I – RMG-I cells, luciferase, cherry-pick, dose response (AID 687027).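 Also: luciferase reporter driven by Pax8 target thyroperoxidase promoter measured by SteadyGlo luminescence.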 In kind it is functional, cell-based.
Paired box protein Pax-8, sequence (Q06710 whole entry): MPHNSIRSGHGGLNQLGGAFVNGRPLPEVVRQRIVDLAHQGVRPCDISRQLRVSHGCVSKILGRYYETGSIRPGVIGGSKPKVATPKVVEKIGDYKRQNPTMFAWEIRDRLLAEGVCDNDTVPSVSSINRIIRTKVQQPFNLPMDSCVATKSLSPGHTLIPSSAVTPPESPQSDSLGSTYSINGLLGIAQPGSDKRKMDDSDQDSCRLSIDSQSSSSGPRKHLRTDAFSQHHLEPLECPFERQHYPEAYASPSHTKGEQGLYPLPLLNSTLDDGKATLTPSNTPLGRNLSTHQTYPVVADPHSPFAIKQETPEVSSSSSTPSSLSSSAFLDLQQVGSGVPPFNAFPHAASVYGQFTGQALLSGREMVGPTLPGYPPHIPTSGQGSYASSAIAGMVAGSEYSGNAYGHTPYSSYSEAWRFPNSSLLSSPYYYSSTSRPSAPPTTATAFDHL
In test [7] the target is T1, Heat shock factor protein 1 (Mus musculus, UniProt P38532).
T1 sequence (P38532 whole entry): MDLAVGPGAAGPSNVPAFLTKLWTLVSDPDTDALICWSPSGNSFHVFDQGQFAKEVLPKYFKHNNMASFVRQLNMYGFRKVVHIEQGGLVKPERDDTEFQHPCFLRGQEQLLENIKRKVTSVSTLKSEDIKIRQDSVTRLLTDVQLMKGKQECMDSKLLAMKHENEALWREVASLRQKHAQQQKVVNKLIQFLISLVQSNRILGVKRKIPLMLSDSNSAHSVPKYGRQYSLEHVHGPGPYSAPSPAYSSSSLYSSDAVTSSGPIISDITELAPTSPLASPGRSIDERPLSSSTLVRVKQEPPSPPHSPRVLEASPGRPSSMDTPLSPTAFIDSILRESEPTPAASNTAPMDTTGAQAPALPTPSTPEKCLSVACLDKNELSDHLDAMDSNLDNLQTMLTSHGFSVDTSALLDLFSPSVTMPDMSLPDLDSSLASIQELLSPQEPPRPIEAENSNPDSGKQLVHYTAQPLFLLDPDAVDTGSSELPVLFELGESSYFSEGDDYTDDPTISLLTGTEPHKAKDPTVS
Put plainly: decrease of HSF1-responsive luciferase luminescence – cell-based, NIH3T3, dose retest, confirmation (AID 2382).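 Also: NIH3T3 fibroblasts with HSF1-driven luciferase reporter stressed by proteasome inhibitor MG132; luminescence from HSF1-driven luciferase expression after 8 hours of MG132 stress.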 In kind it is functional.

The nature of test [8]: HIV-1 AD8 envelope cell-cell fusion blockers – cherry-pick, dose response (AID 652062).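 Also: luciferase signal from cell-cell fusion driven by HIV-1 clade B AD8 Env; potency is for inhibitors of fusion seen as a drop in luminescence.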 Type of test: functional, cell-based.
Test [9] is described as follows: blockers of HIV-1 envelope-mediated cell-cell fusion – cherry-pick, dose response (AID 652057). In kind it is functional, cell-based.
Test [10] can be described thus: HEK-293T viability loss after treatment – luminescence, T-cell screen hits, cytotoxicity control for TCR NF-kB inhibitor project, dose response (AID 489026).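 Also: cells exposed to compound about 14 hours before the viability readout.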 Type of test: functional, cell-based.
The nature of test [11]: Luminescence-based counterscreen assay for KLF5 inhibitors: dose response cell-based high throughput screening assay to identify cytotoxic compounds using the IEC-6 intestinal epithelial cell line. [Related pubchem assays: 1700 (Primary screen.), 1834 (Confirmation screen.), 1858 (Summary AID.), 1905 (Counterscreen.)]. Type of test: functional. A general note: A counterscreen serves to expose hits that act by an unwanted route or on another target.

Test [12] in a line: Shn3 3'UTR reporter signal decrease – cell-based, Clone20 osteoblasts, firefly luciferase, cherry-pick, set 2, Schnurri-3 inhibitor project, dose response (AID 720490).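 Also: actives lower the luminescence signal as inhibitors.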 Type of test: functional.
The nature of test [13]: off-target signal loss in HeLa-CEM21 co-culture – HeLa F-luc CTL cells, cherry-picked, counter-screen for HIV-1 Env fusion inhibitor project, dose response (AID 652040).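 Also: potency for signal decrease marking cytotoxic or nonspecific inhibition.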 Type of test: functional, cell-based.
Test [14] concerns the target Luciferin 4-monooxygenase (Photinus pyralis, UniProt P08659). Put plainly: Counter Screen for Luciferase-based Assay Positives. [Related pubchem assays: 620, 618, 411 ].
For test [15], the target named is T2, Microphthalmia-associated transcription factor (Homo sapiens, UniProt O75030).
T2 sequence (O75030 whole entry): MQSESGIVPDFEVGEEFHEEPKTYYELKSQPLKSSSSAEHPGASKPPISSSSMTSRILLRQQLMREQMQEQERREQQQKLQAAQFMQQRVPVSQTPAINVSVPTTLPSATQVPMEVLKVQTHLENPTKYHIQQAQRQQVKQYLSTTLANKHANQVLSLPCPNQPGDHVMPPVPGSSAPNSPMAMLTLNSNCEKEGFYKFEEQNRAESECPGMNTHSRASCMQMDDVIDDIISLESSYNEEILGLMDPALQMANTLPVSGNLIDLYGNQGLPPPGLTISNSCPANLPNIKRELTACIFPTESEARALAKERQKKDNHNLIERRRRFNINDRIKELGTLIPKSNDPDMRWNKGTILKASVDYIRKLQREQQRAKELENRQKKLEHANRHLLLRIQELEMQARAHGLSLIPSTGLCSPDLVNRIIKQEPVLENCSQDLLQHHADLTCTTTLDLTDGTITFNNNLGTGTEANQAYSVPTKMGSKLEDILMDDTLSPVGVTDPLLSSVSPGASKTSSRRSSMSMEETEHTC
Put plainly: reducers of TRPM1 reporter luminescence, concentration series – cell-based, SK-MEL-5, cherry-picked, set 3, MITF inhibitor project, dose response (AID 493073).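 Also: SK-MEL-5 melanoma cells with luciferase driven by the MITF target TRPM1 promoter.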 Type of test: functional.

Test [16] is described as follows: general cell-killing toxicity readout – plate reader, dry powder samples, cytotoxicity control for PAX8 inhibitor project, dose response (AID 743021). Type of test: functional, cell-based.
For another test, the system named is HT-1080. Put plainly: HT1080 cell viability loss – fluorescence readout (AID 620). Type of test: functional, cell-based. The conditions noted are these: Homo sapiens.
Test [17] in a line: blockers of HIV-1 ZM109 envelope-driven cell-cell fusion – HeLa effector, CEM target cells, luciferase, cherry-pick, dose response (AID 652058).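 Also: luciferase signal from HIV-1 Env mediated cell-cell fusion of effector and target cells.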 In kind it is functional, cell-based.
A short description of test [18]: reduction of Shn3 3'UTR-driven luciferase in osteoblasts – cell-based, Clone20 osteoblasts, firefly luciferase, cherry-picked, dose response (AID 624132).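 Also: firefly luciferase luminescence from reporter carrying the Shn3 3'UTR in osteoblasts.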 In kind it is functional.
The target in test [19] is Nuclear receptor subfamily 5 group A member 2 (Homo sapiens, UniProt O00482). In kind it is functional, cell-based.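 Also: HEK293T cells transfected with LRH-1 and a StAR promoter luciferase reporter; potency for inhibitors that lower LRH-1 driven reporter light.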
Nuclear receptor subfamily 5 group A member 2, sequence (O00482 whole entry): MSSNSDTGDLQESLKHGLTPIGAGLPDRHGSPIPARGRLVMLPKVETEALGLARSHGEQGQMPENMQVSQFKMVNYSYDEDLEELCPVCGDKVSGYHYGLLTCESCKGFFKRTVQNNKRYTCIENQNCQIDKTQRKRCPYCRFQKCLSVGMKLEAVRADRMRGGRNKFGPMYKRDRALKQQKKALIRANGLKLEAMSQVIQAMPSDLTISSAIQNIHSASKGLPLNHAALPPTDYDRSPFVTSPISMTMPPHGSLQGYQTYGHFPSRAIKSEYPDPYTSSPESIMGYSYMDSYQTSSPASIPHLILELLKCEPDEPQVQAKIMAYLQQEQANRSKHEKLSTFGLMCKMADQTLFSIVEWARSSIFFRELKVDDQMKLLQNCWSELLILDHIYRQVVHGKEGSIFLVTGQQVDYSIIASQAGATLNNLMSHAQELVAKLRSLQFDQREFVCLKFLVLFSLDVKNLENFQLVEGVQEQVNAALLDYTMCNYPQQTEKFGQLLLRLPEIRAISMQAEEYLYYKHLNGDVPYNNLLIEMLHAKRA
Test [20] can be described thus: mitochondrial function rescue without frataxin homolog – Friedreich's ataxia, plus single-dose screen, dose response (AID 1465).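 Also: yeast depleted of Yfh1p frataxin homolog grown on glycerol needing respiration; WST-1 tetrazolium dye reduction as measure of cellular dehydrogenase metabolic activity.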 In kind it is functional.
The target in another test is Steroidogenic factor 1 (Homo sapiens, UniProt Q13285). Put plainly: Counterscreen for inverse agonists of the liver receptor homolog-1 (LRH-1; NR5A2): Luminescence-based cell-based high throughput dose response assay to identify inverse agonists of the Steroidogenic Factor 1 Nuclear Receptor (SF1; NR5A1). Type of test: functional.
Steroidogenic factor 1, sequence (Q13285 whole entry): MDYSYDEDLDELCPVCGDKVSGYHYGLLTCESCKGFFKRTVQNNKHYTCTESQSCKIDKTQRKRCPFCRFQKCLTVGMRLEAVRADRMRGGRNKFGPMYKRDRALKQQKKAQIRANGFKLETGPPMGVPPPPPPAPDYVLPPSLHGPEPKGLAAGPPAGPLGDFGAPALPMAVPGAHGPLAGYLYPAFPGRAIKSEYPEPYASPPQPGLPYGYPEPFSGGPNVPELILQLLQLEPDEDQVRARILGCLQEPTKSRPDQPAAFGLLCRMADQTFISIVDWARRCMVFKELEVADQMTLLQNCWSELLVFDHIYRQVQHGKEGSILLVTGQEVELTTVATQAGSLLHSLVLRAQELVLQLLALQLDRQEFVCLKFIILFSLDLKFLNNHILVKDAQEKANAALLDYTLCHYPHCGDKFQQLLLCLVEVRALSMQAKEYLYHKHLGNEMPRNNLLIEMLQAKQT
Test [21] is described as follows: nonselective StAR promoter luciferase inhibitors – cell-based, luminescence, luciferase reporter, counter-screen for LRH-1 inverse agonist project, dose response (AID 651969). In kind it is functional. On the technique in general: In a reporter assay the amount or activity of a reporter protein is the signal.
Test [22] is described as follows: Counterscreen for IDE inhibitors: Luminescence-based cell-based high throughput dose response assay to identify compounds that are cytotoxic to HEK cells. [Related pubchem assays: 434962 (Primary screen (IDE inhibitors in singlicate)), 449730 (Counterscreen (Cytotoxicity in triplicate)), 435028 (Confirmation (IDE inhibitors in triplicate)) …. In kind it is functional. The conditions noted are these: HEK293.

For a further test, the target named is T3, Insulin-degrading enzyme (Homo sapiens, UniProt P14735).
T3 sequence (P14735 whole entry): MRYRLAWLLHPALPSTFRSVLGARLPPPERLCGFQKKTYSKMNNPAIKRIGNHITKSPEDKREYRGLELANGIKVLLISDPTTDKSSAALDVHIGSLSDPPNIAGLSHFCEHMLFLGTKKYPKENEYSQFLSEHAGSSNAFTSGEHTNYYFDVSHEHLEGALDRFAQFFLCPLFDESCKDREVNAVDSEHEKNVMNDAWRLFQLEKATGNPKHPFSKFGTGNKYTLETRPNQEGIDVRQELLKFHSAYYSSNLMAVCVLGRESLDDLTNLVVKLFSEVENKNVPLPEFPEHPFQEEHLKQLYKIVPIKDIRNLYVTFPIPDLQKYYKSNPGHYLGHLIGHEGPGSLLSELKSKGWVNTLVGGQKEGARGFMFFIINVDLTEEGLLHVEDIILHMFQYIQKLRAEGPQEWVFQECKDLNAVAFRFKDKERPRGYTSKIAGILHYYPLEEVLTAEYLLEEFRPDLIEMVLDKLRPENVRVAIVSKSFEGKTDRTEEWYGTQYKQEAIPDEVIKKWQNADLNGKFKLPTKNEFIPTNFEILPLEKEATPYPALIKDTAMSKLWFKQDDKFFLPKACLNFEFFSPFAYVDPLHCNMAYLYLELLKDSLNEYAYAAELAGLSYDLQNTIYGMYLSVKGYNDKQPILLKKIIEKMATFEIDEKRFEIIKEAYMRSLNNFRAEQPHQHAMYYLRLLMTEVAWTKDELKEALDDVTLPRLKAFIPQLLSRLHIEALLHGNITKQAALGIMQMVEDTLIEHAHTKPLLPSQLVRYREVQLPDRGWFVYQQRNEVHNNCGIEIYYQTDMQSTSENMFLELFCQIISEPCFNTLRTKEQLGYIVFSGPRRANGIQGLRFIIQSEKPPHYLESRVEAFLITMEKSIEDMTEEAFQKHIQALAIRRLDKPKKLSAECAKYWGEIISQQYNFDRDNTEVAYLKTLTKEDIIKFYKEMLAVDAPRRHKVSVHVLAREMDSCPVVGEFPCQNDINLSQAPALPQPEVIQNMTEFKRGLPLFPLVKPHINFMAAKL
Put plainly: Dose Response: Fluorescence polarization-based cell-based high throughput dose response assay for inhibitors of insulin-degrading enzyme (IDE). [Related pubchem assays: 434962 (Primary screen (IDE inhibitors in singlicate)), 449730 (Counterscreen (Cytotoxicity in triplicate)), 435028 (Confirmation (IDE inhibitors in triplicate)), 434984 (Summary …. In kind it is functional. In general terms: Polarisation of emitted light reports the rotation of a fluorescent probe.

Induced myeloid leukemia cell differentiation protein Mcl-1, sequence (Q07820 whole entry): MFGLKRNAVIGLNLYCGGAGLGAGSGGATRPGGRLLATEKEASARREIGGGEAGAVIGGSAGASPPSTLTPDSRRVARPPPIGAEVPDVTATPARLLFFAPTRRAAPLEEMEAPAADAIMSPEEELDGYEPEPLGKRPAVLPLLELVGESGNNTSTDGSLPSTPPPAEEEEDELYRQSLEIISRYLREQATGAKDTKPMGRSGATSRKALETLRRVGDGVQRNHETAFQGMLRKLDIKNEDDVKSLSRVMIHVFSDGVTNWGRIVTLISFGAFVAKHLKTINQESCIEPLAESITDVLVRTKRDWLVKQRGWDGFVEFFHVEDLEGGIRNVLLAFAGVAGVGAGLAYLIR
Bcl-2-like protein 10, sequence (Q9HD36 whole entry): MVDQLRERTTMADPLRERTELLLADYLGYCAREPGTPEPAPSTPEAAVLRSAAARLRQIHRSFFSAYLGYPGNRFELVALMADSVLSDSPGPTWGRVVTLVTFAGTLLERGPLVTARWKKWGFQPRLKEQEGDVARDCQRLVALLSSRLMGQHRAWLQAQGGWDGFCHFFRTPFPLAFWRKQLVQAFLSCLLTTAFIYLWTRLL
Luciferin 4-monooxygenase, sequence (P08659 whole entry): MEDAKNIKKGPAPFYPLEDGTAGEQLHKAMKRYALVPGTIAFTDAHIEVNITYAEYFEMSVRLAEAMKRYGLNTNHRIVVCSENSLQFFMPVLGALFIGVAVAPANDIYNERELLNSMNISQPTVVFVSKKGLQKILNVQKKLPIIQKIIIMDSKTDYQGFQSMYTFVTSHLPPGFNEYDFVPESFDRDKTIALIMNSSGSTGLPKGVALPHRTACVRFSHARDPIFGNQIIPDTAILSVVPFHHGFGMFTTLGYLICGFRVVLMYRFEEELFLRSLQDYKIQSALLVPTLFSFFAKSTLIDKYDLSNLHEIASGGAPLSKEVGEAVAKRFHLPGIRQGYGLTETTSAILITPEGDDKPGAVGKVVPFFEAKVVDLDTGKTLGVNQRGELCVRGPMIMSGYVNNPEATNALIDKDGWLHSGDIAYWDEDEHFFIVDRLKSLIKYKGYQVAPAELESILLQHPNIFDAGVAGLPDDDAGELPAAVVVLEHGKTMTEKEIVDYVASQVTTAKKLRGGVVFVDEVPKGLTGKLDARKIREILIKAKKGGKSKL

As usually defined, the IC50 is the concentration that inhibits the measured activity by half. Broadly, the EC50 is the concentration that produces a half-maximal response. In general, AC50 refers to the concentration giving half of the maximal activity seen. As to `Nc1ccc(C(=O)N/N=C\c2cc(N=Nc3cccc4ccccc34)ccc2O)cc1`, the figures for the IC50 (in test [1]; at Bcl-2-like protein 1) were 6.83 µM (active) and > 109 µM (not active), respectively. Besides, the concentration for a half-maximal effect (EC50) in test [2] is 7.41 µM (active); in test [3], 1.12 µM (active); in “cells [4]”, > 350 µM (not active); in the test “cells [5]”, 7.62 µM (active). Besides, the AC50 is 11.1 µM (active) in the test on HEK293 and 30.2 µM (active) in test [6].
Consider `CN(C)c1ccc(NC(=O)/C=C\C(=O)O)cc1`, for which the EC50 on Bcl-2-like protein 10 is 20.4 µM (active).
For `Cc1ccc(C(=O)Nc2cnc3ccccc3c2)cc1`, the half-maximal activity concentration (AC50) at Paired box protein Pax-8 was 3.57 µM (active); in test [8] it was 4.14 µM (active); in [9], 2.29 µM (active); in [12] it was 2.3 µM (active); in [13] it was 9.31 µM (active); in [15] it was 1.15 µM (active). The AC50 is 46 µM (active) in test [16], 13.9 µM (active) in [17] and 4.04 µM (active) in test [18]. The figures for the EC50 (in test [7]; in test [14]; in the test with HT-1080) were 4.76 µM (active), > 100 µM (not active) and > 50 µM (not active), respectively. Also, the values for the IC50 in test [10] and in [11] were > 80 µM (inactive) and > 39.8 µM (not active), respectively.
For the compound `CC1CCCN(c2cc(N(C)CCO)c([N+](=O)[O-])c3nonc23)C1` (centres undefined), the IC50 in [19] is 12.3 µM (inactive); at Steroidogenic factor 1 it was 7.01 µM (active); in [21], 35.9 µM (inactive). The EC50 in test [20] is > 100 µM (active).
As to `CCCCCN(C(=O)CCC(=O)OCC(=O)c1ccc(CCC)cc1)c1c(N)n(CCCC)c(=O)[nH]c1=O`, the results for the IC50 (in test [22]; at Insulin-degrading enzyme) were 39.1 µM (not active) and 10.6 µM (not active), respectively.

Source of the values: ChEMBL document CHEMBL1201862, “PubChem BioAssay data set” (2004).
